The values that follow are results of earlier work, collected in patent US20080107726A1, “COMPOSITIONS COMPRISING BETA-ADRENERGIC RECEPTOR ANTAGONISTS AND DIURETICS” (priority 2006, published 2008).

Where a name gives a salt, the structure may show the parent alone. Read-outs that look alike come from different tables or passages of the source.

On to `COCCc1ccc(OCC(O)CNC(C)C)cc1` (racemic) [Metoprolol succinate, (±)-1-(isopropylamino)-3-[p-(2-methoxyethyl)phenoxy]-2-propanol succinate (2:1) (salt)], for which the Solubility result by setting is: (in dichloromethane and 2-propanol) “slightly soluble”; (in ethanol) “sparingly soluble”; (in ethyl acetate, acetone, diethylether and heptane) “practically insoluble”; (in methanol) “soluble”; (in water) “freely soluble”.
